Source: patent publication US8383666B2, “Pyrrole derivatives, preparation of same and therapeutic application thereof” (Sanofi, priority 2008, dated 2013)

Experiments:
[1] = target: T1, CB1 receptors present in the brain (Mus musculus, UniProt P47746); experiment: Measurement (2): ex vivo binding of [3H]-CP55940 in the brain after intravenous administration; set-up: the CB1 receptors present in the brain in mice; from tissue; host or cells: mouse brain (after intravenous dosing); details: iv at 10 mg/kg, mice, read-out: % inhibition of [3H]-CP55940 binding at the level of the brain
T1 sequence (P47746 whole entry): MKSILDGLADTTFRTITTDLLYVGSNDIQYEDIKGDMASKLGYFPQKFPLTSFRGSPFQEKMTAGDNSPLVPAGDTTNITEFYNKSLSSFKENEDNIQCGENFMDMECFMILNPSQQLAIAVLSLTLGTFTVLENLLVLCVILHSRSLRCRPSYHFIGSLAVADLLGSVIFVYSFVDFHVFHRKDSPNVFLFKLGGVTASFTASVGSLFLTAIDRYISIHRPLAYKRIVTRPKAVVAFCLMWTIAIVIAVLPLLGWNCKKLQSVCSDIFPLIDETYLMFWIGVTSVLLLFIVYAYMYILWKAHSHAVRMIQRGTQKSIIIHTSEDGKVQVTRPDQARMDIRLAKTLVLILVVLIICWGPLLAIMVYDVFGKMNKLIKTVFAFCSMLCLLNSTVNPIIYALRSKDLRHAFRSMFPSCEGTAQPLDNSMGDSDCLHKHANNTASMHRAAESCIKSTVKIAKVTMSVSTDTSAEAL
Excerpt: (§1) Preferably, this percentage is less than 40%, and more preferably less than 30%.

[2] = target: T1, CB1 receptors present in the brain; experiment: Measurement (3): blocking of the hypothermic effect induced by CP55940; assay type: in vivo; set-up: [CB1 receptors present; from tissue; host or cells: living animal, brain CB1 receptors; details: iv at 10 mg/kg
Excerpt: as §1

[3] = target: T2, CB1 receptors present at the periphery (Mus musculus, UniProt P47746); experiment: blocking of the inhibitory effect of CP55940 on gastrointestinal transit; assay type: in vivo; details: per os at 10 mg/kg, mice
T2 construct: from tissue; host or cells: living mouse, peripheral (gastrointestinal) CB1 receptors
T2 sequence (P47746 whole entry): as above

[4] = Measurement (1): quantification of compound in brain and plasma by LC-MS/MS; assay type: in vivo; details: iv at 3 mg/kg, according to measurement (1), mouse, read-out: Ratio: Amount present in the brain/Amount present in the plasma
Excerpt: as §1

inhibition at 10 mg/kg [1] [%]	% reversion of the hypothermic effect of CP55940 [2] [%]	% reversion of the effect of CP55940 on GI transit [3] [%]	Kp [4]	SMILES
25	64			Cn1c(C(=O)N2CCC(NCc3cccc(F)c3)(C(N)=O)CC2)cc(-c2ccc(Cl)cc2Cl)c1-c1ccc(OCCCO)cc1 [Compound 11, 1-[4-(2,4-dichlorophenyl)-5-[4-(3-hydroxypropoxy)phenyl]-1-methyl-1H-pyrrole-2-carbonyl]-4-(3-fluorobenzylamino)piperidine-4-carboxamide]
8	3	76	0.05	Cn1c(C(=O)N2CCC(C(N)=O)(c3ccccc3)CC2)cc(-c2ccc(Cl)cc2Cl)c1-c1ccc(OCC(N)=O)cc1 [Compound 16, 1-[5-(4-carbamoylmethoxy)phenyl-4-(2,4-dichlorophenyl)-1-methyl-1H-pyrrole-2-carbonyl]-4-phenylpiperidine-4-carboxamide]
1	20	100		Cn1c(C(=O)N2CCC(NCc3ccc(F)cc3)(C(N)=O)CC2)cc(-c2ccccc2Cl)c1-c1ccc(OCCCO)cc1 [Compound 24, 1-[4-(2-chlorophenyl)-5-[4-(3-hydroxypropoxy)phenyl]-1-methyl-1H-pyrrole-2-carbonyl]-4-(4-fluorobenzylamino)piperidine-4-carboxamide]
